Measured values published in patent US20240133870A1, “COMBINED TREATMENT FOR CANCER” (Yeda Research and Development Co. Ltd., priority 2021, published 2024).

Legend:
human NSCLC tumor biopsy = experiment: EVOC of NSCLC patient biopsies, viability; assay type: cell-based
Description: Error bars represent standard error. […] Scale bar represents 50 μm. […] Error bars represent standard error. […] Scale bar represents 50 μm.
Scale bar represents 50 μm. […] Scale bar represents 50 μm. […] Scale bar represents 50 μm.

[1] = tested on: pERK in UACC62 xenograft tumors; experiment: EVOC of xenograft tumors in various tissues, pERK immunohistochemistry; assay type: cell-based, human; settings: skin tumors; AZD4547 2 μM added to vemurafenib 4 μM
Method: (§1) SK-MEL-5 BRAF (V600E) melanoma cells were co-cultured with the lung-derived stromal cell line WI-38 or with the bone marrow-derived stromal cell line HS-5 with or without vemurafenib (4 μM). […] Vehicle—DMSO, EGFRi—gefitinib (0.1 μM), EGFRi/HER2i—lapatinib (10 nM), METi—crizotinib (0.1 μM), FGFRi—AZD4547 (50 nM), NFkB/TNFRi—CAPE (10 μM), TGFBRi-LY2109761 (0.5 μM), gp130i—SC144 (1 nM). P-values were calculated by two-sided t-test. *** P<0.001. Error bars represent standard error. […] P-values were calculated by two-sided t-test. *** P<0.001. Error bars represent standard error. […] Human BRAF (V600E) melanoma cell lines UACC62 or G361 were used to generate xenograft tumor models in various tissues of nude mice. When tumors reached a volume of 500-700 μmm^3, they were resected, sliced, and cultured ex-vivo in the presence of different drug combinations or DMSO control. Following 4 days of drug treatment, slices were fixed, embedded in paraffin blocks, and subjected to immunohistochemistry, using anti-pERK antibody, or to immuno-fluorescence, using anti-pFGFR1 antibody. BRAFi (vemurafenib, 4 μM), FGFRi (AZD4547, 2 μM). […]
(§2) For the ex-vivo experiments EVOCs from immunocompromised mice bearing human tumors were generated, as further described hereinbelow. For the in-vivo validation experiments, mice bearing subcutaneous tumors were used; and response was measured by evaluating tumor volume. […]

[2] = tested on: pERK in G361 xenograft tumors; experiment: as above; assay type: cell-based, human; settings: co-treatment with vemurafenib 4 μM and AZD4547 2 μM
Method: as §1, §2

[3] = tested on: colorectal BRAF (V600E) patient tumor; experiment: EVOC of a colorectal BRAF (V600E) patient biopsy, viability; assay type: cell-based, human; settings: Dabrafenib 4 μM/trametinib 0.5 μM with or without trastuzumab or AZD4547 2 μM
Method: Freshly resected biopsy was sliced, and cultured ex vivo. Following 4 days of drug treatment, slices were fixed and embedded in paraffin blocks. FFPE slices were stained by H&E, and the percentage of viable cancer cells was morphologically assessed on H&E stained sections by a pathologist as the ratio between viable cancer cell area and total cancer area (viable cancer cells plus necrotic cancer cells). […] Vehicle—DMSO, FGFRi—AZD4547 2 μM, HER2i—trastuzumab 30 g/ml, BRAFi/MEKi—Dabrafenib 4 μM/trametinib 0.5 μM.
Tumor tissue was obtained from patients at the time of operation or at the time of tissue core biopsy. Following resection, the fresh tissue was placed in ice-cold PBS for immediate transfer to the lab for ex vivo organ culturing. […]
Immunohistochemistry of EVOC tissues: To assess response therapy, 4 μm FFPE tissue slices were stained with H&E, or with specific antibodies: anti-pERK (Cell Signaling, #4370) followed by HRP conjugated secondary antibody (anti-Rabbit HRP, ZUC032, ZytoChem) and DAB staining (DAB substrate kit, DAB057, ZytoChem). […] All slides were scanned using the Pannoramic SCAN II (3[sequence]) and analyzed by a pathologist. The percentage of viable cancer cells was morphologically assessed on H&E stained sections by a pathologist as the ratio between viable cancer cell area and total cancer area (viable cancer cells plus necrotic cancer cells).

AZD4547
response, cancer cell viability (human NSCLC tumor biopsy; patient refractory to osimertinib, osimertinib 4 μM with AZD4547 2 μM): improved response as compared to osimertinib alone
cancer cells viability (human NSCLC tumor biopsy; treatment-naïve patient, AZD4547 0.2 μM added to gefitinib 1.6 μM): significantly reduced cancer cells viability
cancer cell viability (human NSCLC tumor biopsy; treatment-naïve patient, in combination with osimertinib 4 μM): did not affect cancer cell viability
pERK inhibition [1]: near complete inhibition of pERK
pERK downregulation [2]: sufficient to downregulate pERK in all of the different tumor locations
cancer cell viability [3]: did not improve the response to treatment
